Laboratory results published in patent publication US12384817B2, “Peptide having protective activity against cell damage caused by particulate matter, and uses for same” (CAREGEN CO., LTD., priority 2020, dated 2025).
No end group written: not given here.

Assays:
cytochrome P450 [1] = assay: Cytochrome P450 activity in particulate matter-treated A549 cells (P450-Glo Assay); format: cell-based; settings: A549 human alveolar epithelial cells; peptide pretreatment 1 hour at 20, 100, 200 μM; then 50 μg/cm^2 urban particulate matter 24 hours; FIG. 4
Method: In addition, in order to confirm whether the peptide can suppress respiratory damage caused by particulate matter, an experiment for measuring the activity of cytochrome P450 was also performed on A549 cells, which are human alveolar epithelial cells.
(§1) First, human alveolar epithelial cells, A549 cells were seeded into a 96-well plate at a density of 1.2×10^4 cells/well. After overnight incubation, the media were replaced with serum-free media. The alveolar epithelial cells, A549 cells were pretreated with the synthesized peptides for 1 hour at each concentration (20 μM, 100 μM, and 200 μM). Then, the cells were treated with 50 μg/cm^2 of urban particulate matter (Sigma, NIST1648A) for 24 hours. After the treated cells were collected, the activity of cytochrome P450 was measured using P450-Glo™ Assay kit (Promega).

cytochrome P450 [2] = assay: Cytochrome P450 activity in particulate matter-treated HaCaT cells (P450-Glo Assay); format: cell-based; settings: HaCaT human keratinocytes; peptide pretreatment 1 hour at 20, 100, 200 μM; then 50 μg/cm^2 urban particulate matter 24 hours; FIG. 3
Description: When polyaromatic hydrocarbons (PAHs) present in particulate matter penetrate into cells and bind to AHR, it promotes nuclear translocation of AHR. It is known that the AHR translocated into the nucleus forms a complex AHR/ARNT with an AHR nuclear translocator (ARNT), and this complex act as a transcription factor to promote the expression of cytochrome P450 (CYPs). In order to confirm the effect of the synthesized peptide in inhibiting cell damage caused by particulate matter, an experiment was performed for confirming whether the peptide inhibits the activity of cytochrome P450 after the cells were treated with particulate matter.
as §1, with “First, HaCaT cells, which are” for “First,”, “human keratinocytes,” for “human alveolar epithelial cells, A549 cells”, “of 1×10^4” for “of 1.2×10^4”, “The keratinocytes, HaCaT” for “The alveolar epithelial cells, A549 cells”, “the keratinocytes” for “the treated cells”

## SSNAEVLALF [SEQ ID NO: 1, SSNAEVLALF]
Cytochrome P450 [1]
  activity of cytochrome P450 increased by the treatment of particulate matter: reduced in a concentration dependent manner
Cytochrome P450 [2]
  activity of cytochrome P450 increased by the treatment of particulate matter: reduced in a concentration dependent manner
